For 21 compounds, Ki and EC50 results are on record in US20250034153A1, “TRIAZOLOPYRIMIDINES AS A2A / A2B INHIBITORS” (Incyte Corporation, priority 2019, published 2025).

In one experiment the target is Adenosine A2A (Homo sapiens (Human), UniProt P29274). Put plainly: A2A Tag-lite HTRF assay (Example C). As to conditions: Tag-lite Adenosine A2A labeled cells, Red antagonist fluorescent ligand 12.5 nM, one-site competitive binding; read-out: A2A_Ki. How it is done: Example C. A2A Tag-Lite® HTRF Assay
Assays were conducted in black low volume 384-well polystyrene plates (Greiner 784076-25) in a final volume of 10 μL. Test compounds were first serially diluted in DMSO and 100 nl added to the plate wells before the addition of other reaction components. The final concentration of DMSO was 1%. Tag-lite® Adenosine A2A labeled cells (CisBio C1TT1A2A) were diluted 1:5 into Tag-lite buffer (CisBio LABMED) and spun 1200 g for 5 mins. The pellet was resuspended at a volume 10.4× the initial cell suspension volume in Tag-lite buffer, and Adenosine A2A Receptor Red antagonist fluorescent ligand (CisBio L0058RED) added at 12.5 nM final concentration. 10 ul of the cell and ligand mix was added to the assay wells and incubated at room temperature for 45 minutes before reading on a PHERAstar FS plate reader (BMG Labtech) with HTRF 337/620/665 optical module. Percent binding of the fluorescent ligand was calculated; where 100 nM of A2A antagonist control ZM 241385 (Tocris 1036) displaces the ligand 100% and 1% DMSO has 0% displacement. The % binding data versus the log of the inhibitor concentration was fitted to a one-site competitive binding model (GraphPad Prism version 7.02) where the ligand constant=12.5 nM and the ligand Kd=1.85 nM.
(In general: In TR-FRET formats the signal depends on donor and acceptor labels being close together.)

Experiment [1] deals with human adenosine A2B receptor (Homo sapiens (Human), UniProt P29275). Put plainly: Adenosine A2B receptor cyclic AMP GS assay (Example B). As to conditions: HEK-293 cells expressing human A2B, agonist NECA 12 nM, cAMP accumulation (FRET); read-out: A2B_cAMP_EC50. It counts as cell-based. Here is the method:
Example B. Adenosine A2B Receptor Cyclic AMP GS Assay
Stably transfected HEK-293 cells expressing the human adenosine A2B receptor (Perkin Elmer) were maintained in MEM culture medium with 10% FBS and 100 μg/ml Geneticin (Life Technologies). 18 to 24 hours prior to assay, geneticin was removed from culture. The cisbio cAMP-GS Dynamic kit utilizing the FRET (Fluorescence Resonance Energy Transfer) technology was used to measure cAMP accumulation in the cells. Compounds of the present disclosure at an appropriate concentration were mixed with 10000 cells/well in white 96 well half area plates (Perkin Elmer) for 30 min at RT gently shaking. Agonist, NECA (R&D Technologies) at 12 nM was added to each well for 60 min at RT gently shaking. Detection reagents, d2-labeled cAMP (acceptor) and anti-cAMP cryptate (donor) were added to each well for 60 min at RT gently shaking. Plates were read on Pherastar (BMG Labtech), fluorescence ratio 665/620 was calculated and EC50 determination was performed by fitting the curve of percent of control versus the log of the compound concentration using GraphPad Prism.
For orientation: Cyclic AMP is a second messenger, typically raised through Gs and lowered through Gi signalling.

Structures are written as SMILES. Some results are limits rather than exact numbers.

Chain of human adenosine A2B receptor (P29275 whole entry): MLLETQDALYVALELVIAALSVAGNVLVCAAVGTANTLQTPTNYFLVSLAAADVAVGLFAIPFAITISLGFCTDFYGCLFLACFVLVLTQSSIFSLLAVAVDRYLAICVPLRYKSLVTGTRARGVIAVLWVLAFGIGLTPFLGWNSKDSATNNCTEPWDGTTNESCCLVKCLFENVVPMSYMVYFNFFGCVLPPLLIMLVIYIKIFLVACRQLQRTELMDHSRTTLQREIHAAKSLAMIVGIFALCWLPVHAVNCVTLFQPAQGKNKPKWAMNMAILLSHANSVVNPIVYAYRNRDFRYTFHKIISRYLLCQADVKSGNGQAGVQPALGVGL
Chain of Adenosine A2A (P29274 whole entry): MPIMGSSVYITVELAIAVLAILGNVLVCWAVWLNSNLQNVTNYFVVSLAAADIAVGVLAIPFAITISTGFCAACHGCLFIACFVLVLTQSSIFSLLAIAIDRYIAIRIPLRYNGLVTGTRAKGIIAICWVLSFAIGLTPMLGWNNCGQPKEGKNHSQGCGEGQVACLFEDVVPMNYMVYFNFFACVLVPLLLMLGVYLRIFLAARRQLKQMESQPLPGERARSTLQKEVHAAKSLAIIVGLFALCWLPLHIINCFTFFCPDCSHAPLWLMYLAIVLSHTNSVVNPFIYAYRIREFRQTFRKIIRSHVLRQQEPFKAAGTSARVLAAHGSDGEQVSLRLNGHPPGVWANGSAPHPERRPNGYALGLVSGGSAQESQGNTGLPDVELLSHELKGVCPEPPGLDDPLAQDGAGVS

Consider `N#Cc1cccc(-c2nc(N)n3nc(Cn4nnnc4-c4cccc(N)c4)nc3c2-c2ccncn2)c1` [Example 1, 3-(5-amino-2-((5-(3-aminophenyl)-1H-tetrazol-1-yl)methyl)-8-(pyrimidin-4-yl)-[1,2,4]triazolo[1,5-c]pyrimidin-7-yl)benzonitrile], for which the Ki at Adenosine A2A was no more than 0.01 µM. The EC50 in experiment [1] was no more than 0.01 µM.

With `Cc1cccc(-c2nnnn2Cc2nc3c(-c4ccncn4)c(-c4cccc(C#N)c4)nc(N)n3n2)n1` [Example 2, 3-(5-amino-2-((5-(6-methylpyridin-2-yl)-1H-tetrazol-1-yl)methyl)-8-(pyrimidin-4-yl)-[1,2,4]triazolo[1,5-c]pyrimidin-7-yl)benzonitrile], the Ki on Adenosine A2A is no more than 0.01 µM. Besides, the EC50 in experiment [1] is no more than 0.01 µM.

As for `COc1cccc(-c2nnnn2Cc2nc3c(-c4ccncn4)c(-c4cccc(C#N)c4)nc(N)n3n2)n1` [Example 3, 3-(5-amino-2-((5-(6-methoxypyridin-2-yl)-1H-tetrazol-1-yl)methyl)-8-(pyrimidin-4-yl)-[1,2,4]triazolo[1,5-c]pyrimidin-7-yl)benzonitrile], the Ki at Adenosine A2A is no more than 0.01 µM. Further, the EC50 in experiment [1] fell in the range of 0.01 to 0.1 µM.

For `Cn1cc(-c2c(-c3cccc(C#N)c3)nc(N)n3nc(Cn4nnnc4-c4ccccn4)nc23)ccc1=O` [Example 4, 3-(5-amino-8-(1-methyl-6-oxo-1,6-dihydropyridin-3-yl)-2-((5-(pyridin-2-yl)-1H-tetrazol-1-yl)methyl)-[1,2,4]triazolo[1,5-c]pyrimidin-7-yl)benzonitrile], at Adenosine A2A, the Ki was no more than 0.01 µM. Moreover, the EC50 in experiment [1] fell in the range of 0.01 to 0.1 µM.

Consider `Cn1cc(-c2c(-c3cccc(C#N)c3)nc(N)n3nc(Cn4nnnc4-n4cccn4)nc23)ccc1=O` [Example 5, 3-(2-((5-(1H-pyrazol-1-yl)-1H-tetrazol-1-yl)methyl)-5-amino-8-(1-methyl-6-oxo-1,6-dihydropyridin-3-yl)-[1,2,4]triazolo[1,5-c]pyrimidin-7-yl)benzonitrile], for which, on Adenosine A2A, the Ki is no more than 0.01 µM. Also, in experiment [1], the EC50 fell in the range of 0.01 to 0.1 µM.

On to `Cn1cc(-c2c(-c3cccc(C#N)c3)nc(N)n3nc(Cn4nnnc4-c4cscn4)nc23)ccc1=O` [Example 6, 3-(5-amino-8-(1-methyl-6-oxo-1,6-dihydropyridin-3-yl)-2-((5-(thiazol-4-yl)-1H-tetrazol-1-yl)methyl)-[1,2,4]triazolo[1,5-c]pyrimidin-7-yl)benzonitrile], for which, on Adenosine A2A, the Ki is no more than 0.01 µM. The EC50 in experiment [1] fell in the range of 0.01 to 0.1 µM.

On to `Cn1cc(-c2c(-c3cccc(C#N)c3)nc(N)n3nc(Cn4nnnc4-c4ncccn4)nc23)ccc1=O` [Example 7, 3-(5-amino-8-(1-methyl-6-oxo-1,6-dihydropyridin-3-yl)-2-((5-(pyrimidin-2-yl)-1H-tetrazol-1-yl)methyl)-[1,2,4]triazolo[1,5-c]pyrimidin-7-yl)benzonitrile], for which, on Adenosine A2A, the Ki was no more than 0.01 µM. Moreover, the EC50 in experiment [1] lay within 0.01 to 0.1 µM.

Turning to `Cn1cc(-c2c(-c3cccc(C#N)c3)nc(N)n3nc(Cn4nnnc4-c4cnccn4)nc23)ccc1=O` [Example 8, 3-(5-amino-8-(1-methyl-6-oxo-1,6-dihydropyridin-3-yl)-2-((5-(pyrazin-2-yl)-1H-tetrazol-1-yl)methyl)-[1,2,4]triazolo[1,5-c]pyrimidin-7-yl)benzonitrile], at Adenosine A2A, the Ki was no more than 0.01 µM. The EC50 in experiment [1] was in the range of 0.01 to 0.1 µM.

`Cn1nc(-c2c(-c3cccc(C#N)c3)nc(N)n3nc(Cn4nnnc4-c4ccccn4)nc23)ccc1=O` [Example 9, 3-(5-amino-8-(1-methyl-6-oxo-1,6-dihydropyridazin-3-yl)-2-((5-(pyridin-2-yl)-1H-tetrazol-1-yl)methyl)-[1,2,4]triazolo[1,5-c]pyrimidin-7-yl)benzonitrile]: the Ki on Adenosine A2A is no more than 0.01 µM. Besides, in experiment [1], the EC50 was in the range of 0.01 to 0.1 µM.

Take `N#Cc1cccc(-c2nc(N)n3nc(Cn4nnnc4-c4ccccn4)nc3c2-c2ccncc2)c1` [Example 10, 3-(5-amino-2-((5-(pyridin-2-yl)-1H-tetrazol-1-yl)methyl)-8-(pyridin-4-yl)-[1,2,4]triazolo[1,5-c]pyrimidin-7-yl)benzonitrile]: the Ki on Adenosine A2A is no more than 0.01 µM. In addition, the EC50 in experiment [1] is no more than 0.01 µM.

`CN(C)c1cc(-c2c(-c3cccc(C#N)c3)nc(N)n3nc(Cn4nnnc4-c4ccccn4)nc23)ccn1` [Example 11, 3-(5-amino-8-(2-(dimethylamino)pyridin-4-yl)-2-((5-(pyridin-2-yl)-1H-tetrazol-1-yl)methyl)-[1,2,4]triazolo[1,5-c]pyrimidin-7-yl)benzonitrile]: on Adenosine A2A, the Ki was no more than 0.01 µM. Moreover, in experiment [1], the EC50 is no more than 0.01 µM.

As for `N#Cc1cccc(-c2nc(N)n3nc(Cn4nnnc4-c4ccccn4)nc3c2-c2ccnc(N)c2)c1` [Example 12, 3-(5-amino-8-(2-aminopyridin-4-yl)-2-((5-(pyridin-2-yl)-1H-tetrazol-1-yl)methyl)-[1,2,4]triazolo[1,5-c]pyrimidin-7-yl)benzonitrile], the Ki on Adenosine A2A is no more than 0.01 µM. In addition, the EC50 in experiment [1] is no more than 0.01 µM.

With `N#Cc1cccc(-c2nc(N)n3nc(Cc4c(F)cccc4-c4ccncc4)nc3c2-c2ccncc2)c1` [Example 13, 3-(5-amino-2-(2-fluoro-6-(pyridin-4-yl)benzyl)-8-(pyridin-4-yl)-[1,2,4]triazolo[1,5-c]pyrimidin-7-yl)benzonitrile], on Adenosine A2A, the Ki is no more than 0.01 µM. For the same compound, the EC50 in experiment [1] was no more than 0.01 µM.

As to `N#Cc1cccc(-c2nc(N)n3nc(Cc4c(F)cccc4-c4ccnc(N)c4)nc3c2-c2ccnc(N)c2)c1` [Example 14, 3-(5-amino-8-(2-aminopyridin-4-yl)-2-(2-(2-aminopyridin-4-yl)-6-fluorobenzyl)-[1,2,4]triazolo[1,5-c]pyrimidin-7-yl)benzonitrile], the Ki at Adenosine A2A is no more than 0.01 µM. Further, the EC50 in experiment [1] was no more than 0.01 µM.

In the case of `Cc1cccnc1CNc1nc2c(-c3ccc(=O)n(C)c3)c(-c3cccc(C#N)c3)nc(N)n2n1` [Example 15, 3-(5-amino-8-(1-methyl-6-oxo-1,6-dihydropyridin-3-yl)-2-(((3-methylpyridin-2-yl)methyl)amino)-[1,2,4]triazolo[1,5-c]pyrimidin-7-yl)benzonitrile], the Ki at Adenosine A2A was no more than 0.01 µM. Besides, in experiment [1], the EC50 was no more than 0.01 µM.

Regarding `CCn1cc(-c2c(-c3cccc(C#N)c3)nc(N)n3nc(NCc4ncccc4C)nc23)ccc1=O` [Example 16, 3-(5-amino-8-(1-ethyl-6-oxo-1,6-dihydropyridin-3-yl)-2-(((3-methylpyridin-2-yl)methyl)amino)-[1,2,4]triazolo[1,5-c]pyrimidin-7-yl)benzonitrile], the Ki at Adenosine A2A is no more than 0.01 µM. For the same compound, in experiment [1], the EC50 is no more than 0.01 µM.

For `Cc1cccnc1CNc1nc2c(-c3ccc(=O)n(C)n3)c(-c3cccc(C#N)c3)nc(N)n2n1` [Example 17, 3-(5-amino-8-(1-methyl-6-oxo-1,6-dihydropyridazin-3-yl)-2-(((3-methylpyridin-2-yl)methyl)amino)-[1,2,4]triazolo[1,5-c]pyrimidin-7-yl)benzonitrile], at Adenosine A2A, the Ki is no more than 0.01 µM. Also, in experiment [1], the EC50 is no more than 0.01 µM.

For the compound `Cc1cccnc1COc1nc2c(-c3ccc(=O)n(C)c3)c(-c3cccc(C#N)c3)nc(N)n2n1` [Example 18, 3-(5-amino-8-(1-methyl-6-oxo-1,6-dihydropyridin-3-yl)-2-((3-methylpyridin-2-yl)methoxy)-[1,2,4]triazolo[1,5-c]pyrimidin-7-yl)benzonitrile], the Ki at Adenosine A2A is no more than 0.01 µM. Further, the EC50 in experiment [1] is no more than 0.01 µM.

Take `Cc1cccnc1COc1nc2c(-c3ccc(=O)n(C)n3)c(-c3cccc(C#N)c3)nc(N)n2n1` [Example 19, 3-(5-amino-8-(1-methyl-6-oxo-1,6-dihydropyridazin-3-yl)-2-((3-methylpyridin-2-yl)methoxy)-[1,2,4]triazolo[1,5-c]pyrimidin-7-yl)benzonitrile]: the Ki at Adenosine A2A was no more than 0.01 µM. Further, the EC50 in experiment [1] was no more than 0.01 µM.

`Cc1cnccc1-c1c(-c2cccc(C#N)c2)nc(N)n2nc(OCc3ncccc3C)nc12` [Example 20, 3-(5-amino-2-((3-methylpyridin-2-yl)methoxy)-8-(3-methylpyridin-4-yl)-[1,2,4]triazolo[1,5-c]pyrimidin-7-yl)benzonitrile]: the Ki at Adenosine A2A was no more than 0.01 µM. Also, the EC50 in experiment [1] is no more than 0.01 µM.

As for `Cc1cc(-c2c(-c3cccc(C#N)c3)nc(N)n3nc(OCc4ncccc4C)nc23)cc(C)n1` [Example 21, 3-(5-amino-8-(2,6-dimethylpyridin-4-yl)-2-((3-methylpyridin-2-yl)methoxy)-[1,2,4]triazolo[1,5-c]pyrimidin-7-yl)benzonitrile], on Adenosine A2A, the Ki is no more than 0.01 µM. Further, the EC50 in experiment [1] was 0.01 to 0.1 µM.
